# Assay results published in patent US20240216900A1, “SABRE CATALYSTS CONTAINING FLUORINATED CARBON CHAINS FOR DELIVERY OF METAL-FREE MRI CONTRAST AGENTS” (The U.S.A., as represented by the Secretary, Department of …, priority 2022, published 2024).
# Legend:
# [1] = cited from earlier work
# [2] = Relaxation dynamics of hyperpolarized [1-13C]pyruvate (build-up time Tb and T1)
# [3] = as above; remark: listed apart in the source
# From the text: In addition, the relaxation dynamics of the [1-^13C]pyruvate were also studied.
# In addition, relaxation dynamics at earth field and 1.8 T are about the same as a non-fluorinated SABRE catalyst T1=28.9±1.6 s and 66.5±7 s, respectively.
# [4] = Example 7: Example 4 catalyst, DMSO, methanol
# [5] = Example 25: Example 4 catalyst, DMSO, NFBME/MeOD fluorous mixture
# [6] = Example 31: Example 4 catalyst, DMSO, CD3OD/Novec 7100
# [7] = Example 32: Example 4 catalyst, PTMSO, CD3OD/Novec 7100
compound,measurement,setting,value
[HH] [Example H2],H2 solubility in water,[1],about 1.6 mg/L
"CC(=O)C(=O)O [[1-^13C]pyruvate, sodium [1-^13C]pyruvate]",T1 (relaxation at 0.4 μT),[2]; [4],16.1 ± 0.9 s
same,T1 (relaxation at 0.4 μT),[2]; [5],11.3 ± 1.3 s
same,T1 (relaxation at 0.4 μT),[2]; [6],12.6 ± 1.1 s
same,T1 (relaxation at 0.4 μT),[2]; [7],18.0 ± 0.8 s
same,T1 at 1.8T,[3]; [4],66.5 ± 7 s
same,T1 at earth field,[3]; [4],28.9 ± 1.6 s
same,T1 at 1.8T,[3]; [5],16.0 ± 1.4 s
same,T1 at earth field,[3]; [5],9.0 ± 1.9 s
same,T1 at 1.8T,[3]; [6],66.5 ± 3.6 s
same,T1 at earth field,[3]; [6],9.3 ± 0.8 s
same,T1 at 1.8T,[3]; [7],59.0 ± 8.1 s
same,T1 at earth field,[3]; [7],14.9 ± 1.0 s
